Data taken from US10328085B2, “Cobalt porphyrins for the treatment of blood-related disorders” (UNIWERSYTET JAGIELLONSKI, priority 2014, dated 2019).

Key:
C3H and C57BL6xFVB mice [1] = test: complete blood counts (hematology analyzer) in mice after CoPP; type: in vivo; details: for increase in number of granulocytes / increase in number of white blood cells (WBC) in blood compared to DMSO: three times at intervals of two days
Text: The possibility of using CoPP for cell mobilization has been confirmed in experiments conducted on two different strains of mice: C3H (5 mice per group) and C57BL6xFVB (5-6 mice per group). The figures show:
FIG. 1—peripheral blood cell counts in C3H mice after administration of the test compounds (HCT—hematocrit, RBC—erythrocytes, WBC—leukocytes, LYM—lymphocytes, MON—monocytes, GRA—granulocytes, #—number of cells per mm^3, %—percentage of the population among all leukocytes; (ANOVA+Bonferroni test)
FIG. 2—peripheral blood cell counts in C57BL6xFVB strain after administration of CoPP; (test ANOVA+Bonferroni test)
(§1) CoPP was administered to mice intraperitoneally at a dose of 10 mg/kg of body weight, three times at intervals of two days. Control mice received only the solvent (DMSO). In one experiment tin protoporphyrin (SnPP) was also used.
(§2) The day after the last administration of CoPP the mice were sacrificed and samples were collected for analysis. Complete blood counts were obtained using a hematology analyzer. In addition, the phenotype and the quantity of leukocytes in the peripheral blood, bone marrow and spleen was analyzed in more detail using a flow cytometer. Moreover, concentrations of 32 cytokines and growth factors in plasma were analyzed. The results of analyzes indicate that mice that were treated with CoPP had increased number of white blood cells (WBC) in the blood compared to mice that received only DMSO (3-fold in C3H mice, 2-fold in C57BL6xFVB mice). In both strains, there was a significant increase in the number of granulocytes (6.7-fold in C3H mice, 4-fold in C57BL6xFVB mice). There were no changes in the parameters such as hematocrit (HCT) and the number of erythrocytes (RBC) (FIG. 1, FIG. 2)

[2] = tested on: cytokines and growth factors in plasma; test: cytokines and growth factors in plasma (Luminex); type: in vivo, mice
Description: FIG. 5—concentration of cytokines and growth factors in plasma of C3H mice after administration of test compounds; (test ANOVA+Bonferroni test),
FIG. 6—concentration of cytokines and growth factors in plasma of C57BL6xFVB mice after administration of CoPP; (test ANOVA+Bonferroni test),
as §1, §2
In order to investigate the mechanism responsible for the increase of the leukocytes (especially granulocytes) number, after administration of CoPP, the concentrations of cytokines and growth factors in the plasma were measured using the Luminex system. An increase in levels of granulocyte colony stimulating factor (G-CSF), chemokines MCP-1 (CCL2) and IP-10 (CXCL-10) and interleukin 6 was observed (FIG. 5, FIG. 6).

C57BL6xFVB mice = test: HSPC mobilization to blood, CoPP compared with G-CSF; type: in vivo; details: CoPP 10 mg/kg (15 μmol/kg) vs rhG-CSF 250 μg/kg, i.p. daily for five days
Description: FIG. 8—HSPC numbers in the blood of C57BL6xFVB mice treated with G-CSF and CoPP.
Effects of CoPP and exogenous G-CSF were compared. Mice were iterated with CoPP at the dose of 10 mg/kg (15 μmol/kg). Recombinant human G-CSF (rhG-CSF, Amgen) was used at the dose of 250 μg/kg. Compounds were injected i.p. daily for five days. Administration od CoPP mobilized higher number of HSPC (hematopoietic stem/progenitor cells) than administration of exogenous G-CSF (FIG. 8).

C3H and C57BL6xFVB mice [3] = test: flow cytometry of peripheral blood granulocytes in mice; type: in vivo
Text: FIG. 3—the percentage of granulocytes in peripheral blood in C3H mice after administration of the test compounds; (test ANOVA+Bonferroni test),
FIG. 4—the percentage of granulocytes in the peripheral blood of C57BL6xFVB mice after administration of CoPP; (test ANOVA+Bonferroni test),
CoPP is used in scientific experiments, both in vitro and in vivo as heme oxygenase-1 inducer. […] In some of the experiments tin protoporphyrin IX (SnPP), which is an inhibitor of the enzymatic activity of HO-1, was also used.
as §1
as §2, with “In both strains, there was a significant increase in the number of granulocytes (6.7-fold in C3H mice, 4-fold in C57BL6xFVB mice). There were no changes in the parameters such as hematocrit (HCT) and the number of erythrocytes (RBC) (FIG. 1, FIG. 2)” left out

[4] = singlet oxygen generation by flash photolysis; type: physicochemical; details: laser light at 355 nm
Description: FIG. 7—singlet oxygen generation quantum yield (ΦΔ) for CoPP and SnPP in reference to phenalenone, measured by flash photolysis.
Because of the fact that potential described side effects of administration of porphyrins are associated with photosensitization, causing the formation of toxic reactive oxygen species, it was evaluated if CoPP is a photosensitizer and thus may cause side effects. To this end, the ability to generate reactive oxygen species by CoPP was verified by flash photolysis. […] In contrast, in experiment with another porphyrin (SnPP) 89% of absorbed energy was used for generation of singlet oxygen (FIG. 7). It is therefore unlikely that CoPP will cause photosensitization, what often limits the clinical application of other compounds from the group of porphyrins.

solubility = type: physicochemical; details: alkaline aqueous solutions
Text: Cobalt porphyrins can be prepared by known methods. For example, cobalt protoporphyrin IX can be prepared using methods as described in: “Porphyrins and Metalloporphyrins” Ed. by K. M. Smith, Elsevier Scientific Pub. Co (1975) ISBN 0-444-41375-8 oraz Kenner, G. W., et al., Liebigs Ann. Chem. 1973, 1329-1338 and Burns, D. H., et al., J. Chem. Soc., Perkin Trans. 1, 1988, 3119. […] In the production process and the preparation of a medical agent cobalt protoporphyrin is proposed to be dissolved in an alkaline solution (eg. 0.2 M Na3PO4.12H20; ˜0.2 ml/ml final volume) and then with sterile water (˜0.7 ml/ml final volume), pH adjusted to 7.5-7.8 (eg. 0.3N HCl).

[5] = both strains, 10 mg/kg i.p., three times

hematocrit (HCT) (C3H and C57BL6xFVB mice [1]; [5])	number of erythrocytes (RBC) (C3H and C57BL6xFVB mice [1]; [5])	generation of singlet oxygen upon absorption of laser light [4]	solubility (solubility)	absorbed energy used for generation of singlet oxygen [4] [%]	SMILES	increase in number of granulocytes (C3H and C57BL6xFVB mice [1]; C3H mice, 10 mg/kg i.p.) [fold]	increase in number of white blood cells (WBC) in blood compared to DMSO (C3H and C57BL6xFVB mice [1]; C3H mice, 10 mg/kg i.p.) [fold]	increase in number of granulocytes (C3H and C57BL6xFVB mice [1]; C57BL6xFVB mice, 10 mg/kg i.p.) [fold]	increase in number of white blood cells (WBC) in blood compared to DMSO (C3H and C57BL6xFVB mice [1]; C57BL6xFVB mice, 10 mg/kg i.p.) [fold]	plasma level of chemokine IP-10 (CXCL-10) [2]	plasma level of chemokine MCP-1 (CCL2) [2]	plasma level of granulocyte colony stimulating factor (G-CSF) [2]	plasma level of interleukin 6 [2]	number of HSPC mobilized compared with exogenous G-CSF (C57BL6xFVB mice)	mobilization of cells from bone marrow in HO-1 KO mice (C3H and C57BL6xFVB mice [3]; HO-1 KO versus wild type mice, FIG. 4)	number of immature granulocytes (CD11b+/Ly6G low/Ly6C-/SCC mid phenotype) (C3H and C57BL6xFVB mice [3]; peripheral blood, flow cytometer)	effect on the measured parameters (blood counts, granulocytes, cytokines) (C3H and C57BL6xFVB mice [1]; C3H mice, FIG. 1,3,5)
no changes	no changes	does not generate singlet oxygen	soluble in alkaline aqueous solutions		C=Cc1c(C)c2cc3[nH]c(cc4nc(cc5nc(cc1[nH]2)C(C)=C5CCC(=O)[O-])C(CCC(=O)[O-])=C4C)c(C)c3C=C.[Co+2] [CoPP, cobalt protoporphyrin IX]	6.7	3	4	2	increase	increase	increase	increase	higher number	works in a similar manner as in wild type mice	increase	
				89	C=Cc1c2[n-]c(c1C)/C=c1\[n-]/c(c(C)c1C=C)=C\c1[n-]c(c(CCC(=O)O)c1C)C=c1[n-]/c(c(C)c1CCC(=O)O)=C\2.[Sn+4] [SnPP, tin protoporphyrin IX, reference compound]												did not affect the majority of the measured parameters
